The values below come from patent publication US20250171450A1, “NOVEL COELENTERAZINE DERIVATIVES” (National Institute of Advanced Industrial Science and …, priority 2022, published 2025).

In one assay the test system is ALuc47. Nature of the assay: Evaluation of luminescence brightness, ALuc47 expressed in COS-7 cells (live cells and lysates). The format is cell-based, luminescent plankton. To be noted: 100 μM diluted luminescent substrate solution. As to the method: (§1) For luminescence measurements, the IVIS Imaging System purchased from PerkinElmer (old name: Caliper Life Sciences) was used.
(§2) As live cells expressing luminescent enzymes, COS-7 cells derived from the kidney of an African green monkey were used, and the evaluations were also conducted with the lysates produced by the lysis of these live cells.
(§3) The COS-7 cells derived from the kidney of the African green monkey were seeded in a 6-well microplate and were cultured in a CO2 incubator until 70% of the bottom area was covered by the cells. Using TransIT-LT1 reagent (Mirus), the plasmid encoding each of the following marine bioluminescent enzymes was transiently expressed in cells in each well.
(§4) After this lipofection, the cells were cultured in a CO2 incubator for one day. The cells were then subcultured into a 96-well microplate and further incubated for one day.
(§5) The wells with cells transfected with the same plasmid were conceptually divided into two, where one was used for lysate experiments and the other for live cell experiments. For the lysate, first, the cell medium was removed from the 96-well microplate, and then 40 μL of cell lysis reagent (lysate) available from Promega K. K. was injected into each well and the plate was incubated for 15 minutes. For the live cell experiments, after the cell medium was completely removed, the microplate was immediately sealed to prevent the sample evaporation until the luminescence measurements.
(§6) Each luminescent substrate was first dissolved in methanol (PEG400, 25%) to 5 mM (stock solution), which was further diluted with phosphate-buffered saline (PBS) to 100 μM (this solution is hereinafter referred to as diluted luminescent substrate solution). This “diluted luminescent substrate solution” was dispensed in advance into each empty well of a 96-well microplate. […] The bioluminescence brightness from the 96-well black frame microplate was measured, and analyzed using the dedicated software Living Image ver. […]

Assay [1] has as its system Renilla luciferase 8.6-535SG (RLuc8.6SG). Nature of the assay: Evaluation of luminescence brightness, RLuc8.6SG expressed in COS-7 cells (live cells and lysates). Format: cell-based, Renilla reniformis. Conditions: COS-7 live cells and lysates (FIGS. 7, 8); 100 μM diluted luminescent substrate solution. As to the method: as §1, §2, §3, §4, §5, §6
In assay [2] the target is T1, NanoLuc (Oplophorus gracilirostris, UniProt Q9GV45, A31E/A60N/A81I/F95D/I117V/K70R/L54V/L99Q/M102K/N193R/P142E/Q151K/Q38R/Q45L/V71I/Y165I).
T1 construct: host or cells: COS-7
T1 sequence (Q9GV45 28-196 with tags or gaps with the stated changes limits assumed): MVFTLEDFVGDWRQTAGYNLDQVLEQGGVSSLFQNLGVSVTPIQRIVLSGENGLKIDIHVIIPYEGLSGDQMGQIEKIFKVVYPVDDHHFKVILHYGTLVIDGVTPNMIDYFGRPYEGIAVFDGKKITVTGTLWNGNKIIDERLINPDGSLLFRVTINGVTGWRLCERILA
Nature of the assay: Evaluation of bioluminescence spectrum, NanoLuc lysate. Format: biochemical. To be noted: COS-7 lysate (FIG. 12). As to the method: Measurements were conducted using the luminescence spectrum device AB-1850 available from ATTO Corporation.
The measured spectra were obtained with a measurement parameter-tuned detector.
The COS-7 cells were seeded in a 6-well microplate and were cultured in a CO2 incubator until 70% of the bottom area was covered by the cells. Using TransIT-LT1 reagent (Mirus), the plasmid encoding each of the following marine bioluminescent enzymes was transiently expressed in cells in each well.
After this lipofection, the cells were cultured in a CO2 incubator for one day. After the cell medium was completely removed from the 6-well microplate, 200 μL of cell lysis reagent (lysate) available from Promega K. K. was added to each well and the microplate was incubated at room temperature for 15 minutes.
Twenty microliters of this lysate were dispensed into each PCR tube, and 20 μL of the 100 μM diluted luminescent substrate solution was added at the time of luminescence brightness evaluation. The PCR tubes were immediately placed in a spectrophotometer (AB-1850, ATTO Corporation), and the bioluminescence spectrum was measured in the high-sensitivity mode with integration modes of 0.5 seconds, 5 seconds, 10 seconds, and 30 seconds. […]

In assay [3] the target is T1, NanoLuc. Nature of the assay: Evaluation of luminescence brightness, NanoLuc expressed in COS-7 cells (live cells and lysates). The format is cell-based. To be noted: COS-7 live cells and lysates (FIGS. 10, 11); 100 μM diluted luminescent substrate solution. The procedure: as §1, §2, §3, §4, §5, §6
Another assay concerns ALuc16. The assay can be described thus: Evaluation of luminescence brightness, ALuc16 expressed in COS-7 cells (live cells and lysates). The format is cell-based, luminescent plankton. To be noted: COS-7 live cells and lysates (FIGS. 1, 2); 100 μM diluted luminescent substrate solution. The procedure: as §1, §2, §3, §4, §5, §6
For assay [4], the system named is ALuc16, ALuc47, RLuc8.6SG, NanoLuc. The assay can be described thus: Enzyme specificity from luminescence brightness across the luminescent enzymes. The format is cell-based. Conditions: comparison of luminescence among ALuc16, ALuc47, RLuc8.6SG. As to the method:
as §1, §2, §3, §4
The wells with cells transfected with the same plasmid were conceptually divided into two, where one was used for lysate experiments and the other for live cell experiments. […] For the live cell experiments, after the cell medium was completely removed, the microplate was immediately sealed to prevent the sample evaporation until the luminescence measurements. […]

[5] abbreviates: COS-7 live cells and lysates (FIGS. 4, 5).

As to `O=c1c(Cc2ccc(O)cc2)nc2c(Sc3ccccc3)[nH]c(-c3ccc(O)cc3)cn1-2` [structural formula (2-1)], the “luminescence for ALuc47” value in the assay with ALuc47 (setting [5]) is “also showed luminescence”. The “luminescence for RLuc8.6SG” value in assay [1] is “luminescence activity”. Further, on NanoLuc [2], the “luminescence spectral peak for NanoLuc” value worked out at 507 nm. Also, on NanoLuc [3], the “luminescence for NanoLuc” value is reported as “luminescence activity”. The “luminescence for ALuc16” value in the assay on ALuc16 is “luminescence activity”.
On to `O=c1c(Cc2ccc(O)cc2)nc2c(Sc3ccc(F)cc3)[nH]c(-c3ccc(O)cc3)cn1-2` [structural formula (2-2)], for which the “luminescence for ALuc47” value in the assay on ALuc47 (COS-7 live cells (FIG. 4 only cited)) is “slight luminescence”. Besides, in assay [1], the “luminescence for RLuc8.6SG” value is given as “luminescence activity”. For the same compound, the “luminescence for NanoLuc” value on NanoLuc [3] is on record as “slight luminescence”. The “luminescence for ALuc16” value in the assay with ALuc16 is “luminescence activity”.
For `O=c1c(Cc2ccc(O)cc2)nc2c(Cc3ccccc3)[nH]c(-c3ccc4c(c3)OCCO4)cn1-2` [structural formula (1-1)], the “luminescence for ALuc47” value with ALuc47 (setting [5]) was “slight luminescence”. Also, the enzyme specificity entry in assay [4] was “enzyme specificity for ALuc16”. In addition, the “luminescence for RLuc8.6SG” value in assay [1] is “slight luminescence”. Also, the “luminescence for NanoLuc” value at NanoLuc [3] is on record as “no luminescence activity”. In addition, the “luminescence for ALuc16” value with ALuc16 is on record as “high luminescence at high brightness”.
